ChEMBL document CHEMBL3044999, “Chemical basis for the antifeedant activity of natural hydroxamic acids and related compounds” (2004)

Each molecule was assayed on Rhopalosiphum padi (assay: Antifeedant activity against third-instar larvae of Rhopalosiphum padi assessed as repellency index after 24 hr by feeding choice assay).
Type: functional
Parameters: concentration or dose not given beside the values

| Compound | Activity [%] |
| --- | --- |
| COc1ccc2c(c1)OC(O)C(=O)N2 (configuration not stated) | 35 |
| O=C(O)c1ccc2c(c1)OCC(=O)N2O | 2.5 |
| COc1ccc2c(c1)OC(O)C(=O)N2O (configuration not stated) | 74 |
| O=C1COc2ccccc2N1 | 17 |
| COC(=O)c1ccc2c(c1)OCC(=O)N2O [7-MeOCO-D-DIBOA] | 32 |
| O=C1C(O)Oc2ccccc2N1O (configuration not stated) | 92.3 |
| COC1Oc2ccccc2N(O)C1=O (configuration not stated) | 0 |
| O=C1Nc2ccccc2OC1O (configuration not stated) | 38 |
| O=C1COc2ccccc2N1O | 26 |
| COc1ccc2c(c1)OCC(=O)N2 | 18 |
| COc1ccc2c(c1)OC(OC)C(=O)N2O (configuration not stated) | 33.3 |
| COc1ccc2c(c1)OCC(=O)N2O | 52 |
